We go through six compounds from patent US5760276A, “Aryl-and heteroarylcyclohexenyl substituted alkenes having retinoid agonist, antagonist or inverse agonist type biological activity” (Allergan, priority 1997, dated 1998).

The test system of experiment [1] is RARγ -VP-16. Kind of experiment: Retinoid inverse agonist assay: inhibition of basal luciferase activity of RARγ-VP-16 chimeric receptor in cotransfected CV-1 cells. Format: cell-based. The settings on record: CV-1 cells cotransfected with RARγ -VP-16, ER-RXRα chimeric receptor and ERE-tk-Luc reporter. An excerpt: Inverse agonists are ligands that are capable of inhibiting the basal receptor activity of unliganded receptors. […] Moreover, the biological effects associated with retinoid inverse agonists are distinct from those of retinoid agonists or antagonists. For example, RAR inverse agonists, but not RAR neutral antagonists, cause a dose-dependent inhibition of the protein MRP-8 in cultured human keratinocytes differentiated with serum. MRP-8 is a specific marker of cell differentiation, which is also highly expressed in psoriatic epidermis, but is not detectable in normal human skin. Thus, retinoid inverse agonists may offer a unique way of treating diseases such as psoriasis.
The activity of retinoid inverse agonists can be tested by the procedure of Klein et al. J. Biol. Chem. 271, 22692-22696 (1996) which is expressly incorporated herein by reference.
In this assay, retinoid inverse agonists are able to repress the basal activity of a […] -VP-16 chimeric receptor where the constituitively active domain of the herpes simplex virus (HSV) VP-16 is fused to the N-terminus of RARγ. […] Retinoid inverse agonists are able to inhibit the basal luciferase activity in these cells in a dose dependent manner and IC50 s measured.

Experiment [2] addresses T1, RARγ (Homo sapiens, UniProt P13631).
T1 sequence (P13631 1-454): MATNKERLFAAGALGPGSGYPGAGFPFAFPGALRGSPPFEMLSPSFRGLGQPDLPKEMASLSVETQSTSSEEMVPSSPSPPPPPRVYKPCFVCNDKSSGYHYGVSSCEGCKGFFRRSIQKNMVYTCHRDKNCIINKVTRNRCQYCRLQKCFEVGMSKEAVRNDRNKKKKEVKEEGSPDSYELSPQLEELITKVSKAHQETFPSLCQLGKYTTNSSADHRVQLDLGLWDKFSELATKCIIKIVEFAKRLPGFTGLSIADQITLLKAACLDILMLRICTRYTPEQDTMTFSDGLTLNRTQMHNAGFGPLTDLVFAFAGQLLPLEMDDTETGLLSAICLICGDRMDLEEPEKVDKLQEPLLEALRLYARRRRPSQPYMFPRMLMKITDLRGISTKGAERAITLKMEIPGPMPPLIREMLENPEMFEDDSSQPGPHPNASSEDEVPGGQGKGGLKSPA
Kind of experiment: Ligand binding assay, RARγ. An excerpt: Other assays described below, measure the ability of the compounds of the present invention to bind to, and/or activate various retinoid receptor subtypes. When in these assays a compound binds to a given receptor subtype and activates the transcription of a reporter gene through that subtype, then the compound is considered an agonist of that receptor subtype. […] In the below described assays the ability of the compounds to bind to RARα, RARβ, RARγ, RXRα, RXRβ and […]. receptors, and the ability or inability of the compounds to activate transcription of a reporter gene through these receptor subtypes can be tested. A holoreceptor transactivation assay and a ligand binding assay which measure the antagonist/agonist like activity of the compounds of the invention, or their ability to bind to the several retinoid receptor subtypes, respectively, are described in published PCT Application No. […] A description of the holoreceptor transactivation assay is also provided below. […] Cell 68, 397-406, (1992). For RXRα and RXRγ transactivation assays, an RXR-responsive reporter plasmid CRBPII-tk-LUC (50 ng) along with the appropriate RXR expression vectors (10 ng) was used substantially as described by Heyman et al. above, and Allegretto et al. J. Biol. Chem. 268, 26625-26633. […] These reporters contain DRI elements from human CRBPII and certain DRI elements from promoter, respectively. (see Mangelsdorf et al. The Retinoids: Biology, Chemistry and Medicine, pp 319-349, Raven Press Ltd., New York and Heyman et al., cited above) (1, 8). A β-galactosidase (50 ng) expression vector was used as an internal control in the transfections to normalize for variations in transfection efficiency. The cells were transfected in triplicate for 6 hours, followed by incubation with retinoids for 36 hours, and the extracts were assayed for luciferase and β-galactosidase activities. The detailed experimental procedure for holoreceptor transactivations has been described in Heyman et al. and Allegretto et al., cited above. The results obtained in this assay are expressed in EC50 numbers, as they are also in the chimeric receptor transactivation assay. The Heyman et al. Cell 68, 397-406, Allegretto et al. J. Biol. Chem. 268, 26625-26633, and Mangelsdorf et al. The Retinoids: Biology, Chemistry and Medicine, pp 319-349, Raven Press Ltd., New York, are expressly incorporated herein by reference. The results of ligand binding assay are expressed in Kd numbers.

Experiment [3] has as its target T2, RARα (Homo sapiens, UniProt P10276).
T2 sequence (P10276 1-462): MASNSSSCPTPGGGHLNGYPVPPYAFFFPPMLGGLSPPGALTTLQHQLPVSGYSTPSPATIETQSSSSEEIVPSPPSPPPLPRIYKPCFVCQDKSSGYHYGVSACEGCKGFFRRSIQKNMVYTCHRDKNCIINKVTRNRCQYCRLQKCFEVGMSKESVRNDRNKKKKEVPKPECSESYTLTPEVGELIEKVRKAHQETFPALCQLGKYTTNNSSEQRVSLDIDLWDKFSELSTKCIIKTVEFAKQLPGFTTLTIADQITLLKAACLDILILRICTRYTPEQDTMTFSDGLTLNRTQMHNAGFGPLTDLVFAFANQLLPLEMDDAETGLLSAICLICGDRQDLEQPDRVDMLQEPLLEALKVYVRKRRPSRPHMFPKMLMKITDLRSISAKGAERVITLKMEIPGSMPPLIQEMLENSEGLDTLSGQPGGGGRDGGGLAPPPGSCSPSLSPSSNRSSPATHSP
As to the kind of experiment: Ligand binding assay, RARα. An excerpt: (§1) Other assays described below, measure the ability of the compounds of the present invention to bind to, and/or activate various retinoid receptor subtypes. When in these assays a compound binds to a given receptor subtype and activates the transcription of a reporter gene through that subtype, then the compound is considered an agonist of that receptor subtype. […] In the below described assays the ability of the compounds to bind to RARα, RARβ, RARγ, RXRα, RXRβ and RXRγ receptors, and the ability or inability of the compounds to activate transcription of a reporter gene through these receptor subtypes can be tested.
(§2) A holoreceptor transactivation assay and a ligand binding assay which measure the antagonist/agonist like activity of the compounds of the invention, or their ability to bind to the several retinoid receptor subtypes, respectively, are described in published PCT Application No. WO WO93/11755 (particularly on pages 30-33 and 37-41) published on Jun. 24, 1993, the specification of which is also incorporated herein by reference. A description of the holoreceptor transactivation assay is also provided below.
(§3) CV1 cells (5,000 cells/well) were transfected with an RAR reporter plasmid MTV-TREp-LUC (50 ng) along with one of the RAR expression vectors (10 ng) in an automated 96-well format by the calcium phosphate procedure of Heyman et al. Cell 68, 397-406, (1992). For RXRα and RXRγ transactivation assays, an RXR-responsive reporter plasmid CRBPII-tk-LUC (50 ng) along with the appropriate RXR expression vectors (10 ng) was used substantially as described by Heyman et al. above, and Allegretto et al. J. Biol. Chem. 268, 26625-26633. For RXRβ transactivation assays, an RXR-responsive reporter plasmid CPRE-tk-LUC ([…]) along with RXRβ expression vector ([…]) was used as described in above. These reporters contain DRI elements from human CRBPII and certain DRI elements from promoter, respectively. (see Mangelsdorf et al. The Retinoids: Biology, Chemistry and Medicine, pp 319-349, Raven Press Ltd., New York and Heyman et al., cited above) (1, 8). A β-galactosidase (50 ng) expression vector was used as an internal control in the transfections to normalize for variations in transfection efficiency. The cells were transfected in triplicate for 6 hours, followed by incubation with retinoids for 36 hours, and the extracts were assayed for luciferase and β-galactosidase activities. The detailed experimental procedure for holoreceptor transactivations has been described in Heyman et al. and Allegretto et al., cited above. The results obtained in this assay are expressed in EC50 numbers, as they are also in the chimeric receptor transactivation assay. The Heyman et al. Cell 68, 397-406, Allegretto et al. J. Biol. Chem. 268, 26625-26633, and Mangelsdorf et al. The Retinoids: Biology, Chemistry and Medicine, pp 319-349, Raven Press Ltd., New York, are expressly incorporated herein by reference. The results of ligand binding assay are expressed in Kd numbers. (See Cheng et al. Biochemical Pharmacology Vol. 22 pp 3099-3108, expressly incorporated herein by reference.)

Experiment [4] addresses T3, RARβ (Homo sapiens, UniProt P10826).
T3 sequence (P10826 1-455): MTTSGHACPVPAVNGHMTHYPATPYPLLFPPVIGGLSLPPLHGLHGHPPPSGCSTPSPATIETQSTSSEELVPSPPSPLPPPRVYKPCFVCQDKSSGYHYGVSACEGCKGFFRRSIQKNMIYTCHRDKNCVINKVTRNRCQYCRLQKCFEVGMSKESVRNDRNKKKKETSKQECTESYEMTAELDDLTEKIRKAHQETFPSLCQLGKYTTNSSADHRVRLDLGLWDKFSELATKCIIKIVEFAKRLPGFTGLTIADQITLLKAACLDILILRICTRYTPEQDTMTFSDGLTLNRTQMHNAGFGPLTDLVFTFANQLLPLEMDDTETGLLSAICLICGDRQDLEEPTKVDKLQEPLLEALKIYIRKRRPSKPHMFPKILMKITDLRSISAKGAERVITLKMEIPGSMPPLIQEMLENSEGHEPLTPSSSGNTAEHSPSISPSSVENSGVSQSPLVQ
As to the kind of experiment: Ligand binding assay, RARβ.
Source text: as §1, §2, §3

For orientation: IC50 means the point on the concentration scale where inhibition reaches its midpoint. Lower therefore signals greater potency. In experiment [1], `CCOC(=O)c1ccc(C#C/C=C/C2C(c3ccc(C)cc3)=CCCC2(C)C)cc1` (racemic) [Compound 10, Ethyl (±)-(E)-4-(4-(2-(4-Methylphenyl)-4,4-dimethylcyclohexen-3-yl)but-3-en-1-yn-1-yl)benzoate] registered an IC50 of 1 nM.

The Kd is the constant that tells how readily two partners part at equilibrium. The low end stands for tighter binding, the high end for weaker binding. In the case of `Cc1ccc(C2=CCC(C)(C)C=C2/C=C/C#Cc2ccc(C(=O)O)cc2)cc1` [Compound 24, (E)-4-(4-(2-(4-Methylphenyl)-5,5-dimethyl-1,3-cyclohexadien-3-yl)but-3-ene-1-yn-1-yl)benzoic Acid], the values for the Kd in experiment [2], in experiment [3] and in experiment [4] were 33 nM, 134 nM and 48 nM, respectively.

In the case of `Cc1ccc(C2=C(/C=C/C#Cc3ccc(C(=O)O)cc3)C(C)(C)CCC2)cc1` [Compound 13, (E)-4-(4-(1-(4-Methylphenyl)-3,3-dimethylcyclohexen-2-yl)but-3-en-1-yn-1-yl)benzoic Acid], the Kd was found to be 21 nM in experiment [2], 148 nM in experiment [3] and 6 nM in experiment [4].

On to `CC1(C)CCCC(c2ccc(C(C)(C)C)cc2)=C1/C=C/C#Cc1ccc(C(=O)O)cc1` [Compound 16, (E)-4-(4-(1-(4-tert-butylphenyl)-3,3-dimethylcyclohexen-2-yl)but-3-en-1-yn-1-yl)benzoic acid], for which the Kd in experiment [2] was 333 nM; in experiment [3], 875 nM; in experiment [4] it was 13 nM.

On to `CCc1ccc(C2=C(/C=C/C#Cc3ccc(C(=O)O)cc3)C(C)(C)CCC2)cc1` [Compound 15, (E)-4-(4-(1-(4-Ethylphenyl)-3,3-dimethylcyclohexen-2-2l)but-3-en-1-yn-1-yl)benzoic acid], for which the figures for the Kd in experiment [2], in experiment [3] and in experiment [4] were 36 nM, 136 nM and 4 nM, respectively.

As for `Cc1ccc(C2=CCCC(C)(C)C2/C=C/C#Cc2ccc(C(=O)O)cc2)cc1` (racemic) [Compound 14, (±)-(E)-4-(4-(2-(4-Methylphenyl)-4,4-dimethylcyclohexen-3-yl)but-3-en-1-yn-1-yl)benzoic acid], the values for the equilibrium dissociation constant (Kd) in experiment [2], in experiment [3] and in experiment [4] were 98 nM, 454 nM and 24 nM, respectively.
